The numbers were not newly measured in US11013731B2, “Intratumoral administration of sirolimus for treatment of prostate cancer” (SANTEN PHARMACEUTICAL CO., LTD., priority 2017, dated 2021), which cites them from elsewhere.

For the series the following is noted: according to Medscape.

For the compound `CO[C@H]1C[C@@H]2CC[C@@H](C)[C@@](O)(O2)C(=O)C(=O)N2CCCC[C@H]2C(=O)O[C@H]([C@H](C)C[C@@H]2CC[C@@H](O)[C@H](OC)C2)CC(=O)[C@H](C)/C=C(\C)[C@@H](O)[C@@H](OC)C(=O)[C@H](C)C[C@H](C)/C=C/C=C/C=C/1C` [sirolimus], the oral bioavailability is given as 14%.
